In patent US10428044B2, “3-amino-1,5,6,7-tetrahydro-4H-indol-4-ones” (Bayer Pharma Aktiengesellschaft, priority 2014, dated 2019):

Target: (recombinant) catalytic domain of human Bub1 (amino acids 704-1085) (Homo sapiens (Human), UniProt O43683)
Assay: Bub1 kinase assay (TR-FRET)
Type: biochemical
Settings: ATP 10 μM final, peptide substrate 1 μM final, 60 min at 22° C., read-out: Biological Assay: Bub1 kinase assay median IC50
Outline: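 Readout was TR-FRET between a Eu-labeled antibody complex recognizing phosphoserine and streptavidin-XL665 on the biotinylated peptide, after EDTA stop and 1 h at 22° C. The kinase reaction ran for 60 min at 22° C. Values are means or medians of repeat tests, from 4-parameter fits normalized to enzyme-free and inhibitor-free controls.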

Sequence of (recombinant) catalytic domain of human Bub1 (amino acids 704-1085) (O43683 704-1085): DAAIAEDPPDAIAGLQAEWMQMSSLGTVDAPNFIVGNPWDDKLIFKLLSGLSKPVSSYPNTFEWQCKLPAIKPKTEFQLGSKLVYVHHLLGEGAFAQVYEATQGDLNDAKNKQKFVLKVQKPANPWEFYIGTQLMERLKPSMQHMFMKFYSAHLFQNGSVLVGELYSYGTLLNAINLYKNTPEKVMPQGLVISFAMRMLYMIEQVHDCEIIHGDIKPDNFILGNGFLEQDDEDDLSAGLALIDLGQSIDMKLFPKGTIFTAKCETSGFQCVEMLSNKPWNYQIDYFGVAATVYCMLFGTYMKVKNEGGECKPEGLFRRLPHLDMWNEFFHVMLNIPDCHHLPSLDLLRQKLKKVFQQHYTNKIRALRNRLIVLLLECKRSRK

SMILES	IC50 [nM]
CC1(C)CC(=O)c2c([nH]c(-c3ccnc(NC(=O)c4cc(F)cc(F)c4)c3)c2Nc2ccccc2)C1 [Example 467, N-{4-[6,6-dimethyl-4-oxo-3-(phenylamino)-4,5,6,7-tetrahydro-1H-indol-2-yl]pyridin-2-yl}-3,5-difluorobenzamide]	23.3
O=C(Nc1cc(-c2[nH]c3c(c2Nc2ccccc2)C(=O)CCC3)ccn1)c1ccn[nH]1 [Example 275, N-{4-[4-oxo-3-(phenylamino)-4,5,6,7-tetrahydro-1H-indol-2-yl]pyridin-2-yl}-1H-pyrazole-5-carboxamide]	12.7
CC1(C)CC(=O)c2c([nH]c(-c3ccncc3)c2Nc2ccc(Cl)cc2)C1 [Example 10, 3-[(4-chlorophenyl)amino]-6,6-dimethyl-2-(pyridin-4-yl)-1,5,6,7-tetrahydro-4H-indol-4-one]	12.5
CC(=O)Nc1cc(-c2[nH]c3c(c2Nc2ccc(F)c(F)c2)C(=O)CCC3)ccn1 [Example 315, N-(4-{3-[(3,4-difluorophenyl)amino]-4-oxo-4,5,6,7-tetrahydro-1H-indol-2-yl}pyridin-2-yl)acetamide]	101
COc1cc(F)ccc1Nc1c(-c2ccncc2)[nH]c2c1C(=O)CC(C)(C)C2 [Example 121, 3-[(4-fluoro-2-methoxyphenyl)amino]-6,6-dimethyl-2-(pyridin-4-yl)-1,5,6,7-tetrahydro-4H-indol-4-one]	323
N#CC1(C(=O)Nc2cc(-c3[nH]c4c(c3Nc3ccccc3)C(=O)CCC4)ccn2)CC1 [Example 246, 1-cyano-N-{4-[4-oxo-3-(phenylamino)-4,5,6,7-tetrahydro-1H-indol-2-yl]pyridin-2-yl}cyclopropanecarboxamide]	60.2
CSc1cc(-c2[nH]c3c(c2Nc2ccccc2)C(=O)CC(C)(C)C3)ccn1 [Example 200, 6,6-dimethyl-2-[2-(methylsulfanyl)pyridin-4-yl]-3-(phenylamino)-1,5,6,7-tetrahydro-4H-indol-4-one]	610
CC1(C)CC(=O)c2c([nH]c(-c3cc(N)ncn3)c2Nc2ccccc2)C1 [Example 224, 2-(6-aminopyrimidin-4-yl)-6,6-dimethyl-3-(phenylamino)-1,5,6,7-tetrahydro-4H-indol-4-one]	248
O=C1CCC(O)c2[nH]c(-c3ccncc3)c(Nc3ccccc3)c21 (stereo not drawn) [Example 446, 7-hydroxy-3-(phenylamino)-2-(pyridin-4-yl)-1,5,6,7-tetrahydro-4H-indol-4-one]	40.1
Cc1cc(Nc2c(-c3ccncc3)[nH]c3c2C(=O)CC(C)(C)C3)ccc1F [Example 81, 3-[(4-fluoro-3-methylphenyl)amino]-6,6-dimethyl-2-(pyridin-4-yl)-1,5,6,7-tetrahydro-4H-indol-4-one]	44.3
Cc1ccc(CO)c(Nc2c(-c3ccncc3)[nH]c3c2C(=O)CC(C)(C)C3)c1 [Example 481, 3-{[2-(hydroxymethyl)-5-methylphenyl]amino}-6,6-dimethyl-2-(pyridin-4-yl)-1,5,6,7-tetrahydro-4H-indol-4-one]	78.6
COC(C)C(=O)Nc1cc(-c2[nH]c3c(c2Nc2ccccc2)C(=O)CCC3)ccn1 (stereo not drawn) [Example 329]	65.4
Cc1cc(-c2[nH]c3c(c2Nc2ccccc2)C(=O)CCC3)ccn1 [Example 143, 2-(2-methylpyridin-4-yl)-3-(phenylamino)-1,5,6,7-tetrahydro-4H-indol-4-one]	558
CC(C)(C)OC(=O)N1CC(C(=O)Nc2cc(-c3[nH]c4c(c3Nc3ccccc3)C(=O)CCC4)ccn2)C1 [Example 295, tert-butyl 3-({4-[4-oxo-3-(phenylamino)-4,5,6,7-tetrahydro-1H-indol-2-yl]pyridin-2-yl}carbamoyl)azetidine-1-carboxylate]	38
CC1(C)CC(=O)c2c([nH]c(-c3ccnc(NC(=O)COCc4ccccc4)c3)c2Nc2ccccc2)C1 [Example 476, 2-(benzyloxy)-N-{4-[6,6-dimethyl-4-oxo-3-(phenylamino)-4,5,6,7-tetrahydro-1H-indol-2-yl]pyridin-2-yl}acetamide]	8.04
CC1(C)CC(=O)c2c([nH]c(-c3ccnc(OCc4ccccc4)c3)c2Nc2ccccc2)C1 [Example 468, 2-[2-(benzyloxy)pyridin-4-yl]-6,6-dimethyl-3-(phenylamino)-1,5,6,7-tetrahydro-4H-indol-4-one]	> 20000
CNc1cc(-c2[nH]c3c(c2Nc2ccccc2)C(=O)CC(C)(C)C3)ccn1 [Example 145, 6,6-dimethyl-2-[2-(methylamino)pyridin-4-yl]-3-(phenylamino)-1,5,6,7-tetrahydro-4H-indol-4-one]	148
O=C(COc1ccsc1Cl)Nc1cc(-c2[nH]c3c(c2Nc2ccccc2)C(=O)CCC3)ccn1 [Example 345, 2-[(2-chlorothiophen-3-yl)oxy]-N-{4-[4-oxo-3-(phenylamino)-4,5,6,7-tetrahydro-1H-indol-2-yl]pyridin-2-yl}acetamide]	72.5

SMILES	IC50 [nM]
O=C(Nc1cc(-c2[nH]c3c(c2Nc2ccccc2)C(=O)CCC3)ccn1)c1cccc(F)c1 [Example 265, 3-fluoro-N-{4-[4-oxo-3-(phenylamino)-4,5,6,7-tetrahydro-1H-indol-2-yl]pyridin-2-yl}benzamide]	19.1
CC(C)c1ccccc1Nc1c(-c2ccncc2)[nH]c2c1C(=O)CC(C)(C)C2 [Example 88, 6,6-dimethyl-3-{[2-(propan-2-yl)phenyl]amino}-2-(pyridin-4-yl)-1,5,6,7-tetrahydro-4H-indol-4-one]	2610
CC1(C)CC(=O)c2c([nH]c(-c3cc(Cl)nc(Cl)c3)c2Nc2ccccc2)C1 [Example 216, 2-(2,6-dichloropyridin-4-yl)-6,6-dimethyl-3-(phenylamino)-1,5,6,7-tetrahydro-4H-indol-4-one]	> 20000
CC1(C)CC(=O)c2c([nH]c(-c3ccncc3)c2Nc2ccccc2)C1 [Example 1, 6,6-dimethyl-3-(phenylamino)-2-(pyridin-4-yl)-1,5,6,7-tetrahydro-4H-indol-4-one]	6.25
COc1cnccc1-c1[nH]c2c(c1Nc1ccccc1)C(=O)CCC2 [Example 413, 2-(3-methoxypyridin-4-yl)-3-(phenylamino)-1,5,6,7-tetrahydro-4H-indol-4-one]	43.2
CC1(C)CC(=O)c2c([nH]c(-c3ccnc4[nH]cnc34)c2Nc2ccccc2)C1 [Example 221, 2-(3H-imidazo[4,5-b]pyridin-7-yl)-6,6-dimethyl-3-(phenylamino)-1,5,6,7-tetrahydro-4H-indol-4-one]	13.1
CC1(C)CC(=O)c2c([nH]c(-c3ccncc3)c2Nc2ccc(F)c(Cl)c2)C1 [Example 95, 3-[(3-chloro-4-fluorophenyl)amino]-6,6-dimethyl-2-(pyridin-4-yl)-1,5,6,7-tetrahydro-4H-indol-4-one]	43.7
O=C1CCCc2[nH]c(-c3ccnc(Nc4cccc(F)c4)c3)c(Nc3ccccc3)c21 [Example 375, 2-{2-[(3-fluorophenyl)amino]pyridin-4-yl}-3-(phenylamino)-1,5,6,7-tetrahydro-4H-indol-4-one]	330
CC(=O)c1cccc(Nc2c(-c3ccncc3)[nH]c3c2C(=O)CC(C)(C)C3)c1 [Example 113, 3-[(3-acetylphenyl)amino]-6,6-dimethyl-2-(pyridin-4-yl)-1,5,6,7-tetrahydro-4H-indol-4-one]	174
CC1(C)CC(=O)c2c([nH]c(-c3ccncc3)c2Nc2ccc(F)cc2)C1 [Example 11, 3-[(4-fluorophenyl)amino]-6,6-dimethyl-2-(pyridin-4-yl)-1,5,6,7-tetrahydro-4H-indol-4-one]	16.5
CS(=O)(=O)CCn1c2c(c(Nc3ccccc3)c1-c1ccncc1)C(=O)CCC2 [Example 176, 1-[2-(methylsulfonyl)ethyl]-3-(phenylamino)-2-(pyridin-4-yl)-1,5,6,7-tetrahydro-4H-indol-4-one]	2040
CCOc1ccccc1Nc1c(-c2ccncc2)[nH]c2c1C(=O)CC(C)(C)C2 [Example 128, 3-[(2-ethoxyphenyl)amino]-6,6-dimethyl-2-(pyridin-4-yl)-1,5,6,7-tetrahydro-4H-indol-4-one]	576
CC1(C)CC(=O)c2c([nH]c(-c3ccncc3)c2Nc2ccccc2Cl)C1 [Example 61, 3-[(2-chlorophenyl)amino]-6,6-dimethyl-2-(pyridin-4-yl)-1,5,6,7-tetrahydro-4H-indol-4-one]	68.5
CC(=O)Nc1cc(-c2[nH]c3c(c2Nc2ccccc2)C(=O)CC(C)(C)C3)ncn1 [Example 357, N-{6-[6,6-dimethyl-4-oxo-3-(phenylamino)-4,5,6,7-tetrahydro-1H-indol-2-yl]pyrimidin-4-yl}acetamide]	3080
Cc1noc(COCC(=O)Nc2cc(-c3[nH]c4c(c3Nc3ccccc3)C(=O)CCC4)ccn2)n1 [Example 349, 2-[(3-methyl-1,2,4-oxadiazol-5-yl)methoxy]-N-{4-[4-oxo-3-(phenylamino)-4,5,6,7-tetrahydro-1H-indol-2-yl]pyridin-2-yl}acetamide]	8.19
CC1(C)CC(=O)c2c([nH]c(-c3ccnc(NCCCc4ccccc4)c3)c2Nc2ccccc2)C1 [Example 497, 6,6-dimethyl-3-(phenylamino)-2-{2-[(3-phenylpropyl)amino]pyridin-4-yl}-1,5,6,7-tetrahydro-4H-indol-4-one]	1440
O=C1CC(CCl)Cc2[nH]c(-c3ccncc3)c(Nc3ccccc3)c21 (stereo not drawn) [Example 443, 6-(chloromethyl)-3-(phenylamino)-2-(pyridin-4-yl)-1,5,6,7-tetrahydro-4H-indol-4-one]	5.05
O=C(Nc1ccccn1)Nc1cc(-c2[nH]c3c(c2Nc2ccccc2)C(=O)CCC3)ccn1 [Example 386, 1-{4-[4-oxo-3-(phenylamino)-4,5,6,7-tetrahydro-1H-indol-2-yl]pyridin-2-yl}-3-pyridin-2-ylurea]	20.3
